From patent publication US20240254134A1, “AGELASTATIN A DERIVATIVES AND RELATED METHODS” (ROMO, Daniel, priority 2021, published 2024)
Where two headings read alike, the source gives them in different places.

Tests used:
[1] = Stability studies of pyrrole-derived carbinolamines 18a-18c (1H NMR); format: physicochemical; settings: in CD3OD
Method: We synthesized pyrrole carboxylic amides 17a-c to study the equilibrium between the corresponding carbinolamines and pyrrolo ketones (FIG. 5). Reduction of 2-azidocyclopentanone and condensation with pyrrole-1H-carboxylic acid gave amide 17b. Upon treatment of ketone 17b with Et3N, cyclization gave the corresponding carbinolamine 18b in 73% yield (>19:1 dr, 600 MHz ^1H NMR). […] When resubjected to NEt3/CH2Cl2 at ambient temperature (22° C.) for 16 h, only a small amount of the ring-opened keto pyrrole 17b was generated leading to an equilibrium ratio of 11:1 (18b/17b) favoring the cyclized form as judged by ^1H NMR. […] In contrast, the 5-bromo pyrrole analog 17a, that most closely mimics the targeted 7-hydroxy AglA, disfavored the closed form 18a.
To a stirred solution of carbinolamine 18b (3.0 mg, 0.016 mmol, 1.0 equiv) in dichloromethane (0.32 mL) was added triethylamine (6.6 μl, 0.047 mmol, 3.0 equiv).
To a stirred solution of carbinolamine 18c (1.2 mg, 0.0044 mmol, 1.0 equiv) was added a solution of triethylamine in dichloromethane (0.1 mL, the solution was made by mixing 19 μl triethylamine and 1.0 mL dichloromethane).
To a 1.0 dram vial was charged 17a (2.7 mg, 0.01 mmol, 1.0 equiv) and a solution of triethylamine in dichloromethane (0.23 mL, […], 3.0 equiv. The solution was made by mixing 19 μl triethylamine and 1.0 mL dichloromethane).
In a 1.5 dram vial, carbinolamine 18b (2.6 mg, 0.014 mmol, 1.0 equiv) was dissolved in THF (0.14 mL) and MeOH (0.14 mL) and the mixture was cooled to 0° C. N-bromosuccinamide (2.5 mg, 0.0142 mmol, 1.05 equiv) was added and the reaction was allowed to warm up to ambient temperature (22° C.). After stirring for 4 h, TLC indicated there was no more starting material and the reaction mixture was concentrated and purified by column chromatography on silica (MeOH/CH2Cl2, 0 to 20%) to give a mixture of 18a/18c/17a (2.4 mg, 65%) in 1:0.6:0.44 ratio. This mixture was monitored by NMR to probe the stability of the 5-bromo derivative in CD3OD. […]

[2] = Stability of 7-hydroxy AglA derivatives (1H NMR); format: physicochemical
[3] = Cancer cell line cytotoxicity assay (MTS or resazurin, 72 h); format: cell-based; settings: human
Method: (§1) Cancer Cell Line Cytotoxicity Assays Cancer cell lines (MDA-MB-231, MCF7, Caco2, or U87) were plated on 96-well plates at 2,000 cells per well and incubated for 24 h at 37° C., 5% CO2. AglA and derivatives were dissolved in DMSO, diluted to the appropriate concentrations, and the compound solutions or equivalent concentration of solvent (vehicle) were added to the plate and incubated for 72 h at 37° C., 5% CO2. Following the manufacturer protocol, 20 μL of CellTiter 96® AQueous One Solution Cell Proliferation Assay (MTS, Promega), or CellTiter-Blue@ Cell Viability Assay (resazurin, Promega) was added. The plate was allowed to develop for 1-4 h at 37° C., 5% CO2 and evaluated at 490 nm on an AccuSkan Go (Fisher Scientific) or at 560 nm excitation and 590 nm emission on a VarioSkan Lux Multimode Microplate Reader (Fisher Scientific).

[4] = test system: peptidyl transfer center (PTC) of the ribosome; settings: HeLa cells; cited from earlier work
[5] = test system: glycogen synthase kinase-3β; settings: cited from earlier work
[6] = molecular target: osteopontin (OPN, encoded by SPP1) (Homo sapiens, UniProt P10451); settings: cited from earlier work
[7] = test system: MCF7; test: Cancer cell line cytotoxicity assay (MTS or resazurin, 72 h); format: cell-based; settings: MCF7, 72 h incubation
Method: as §1

[8] = test system: MDA-MB-231; test: as above; format: cell-based; settings: MDA-MB-231, 72 h incubation
Method: as §1

[9] = test system: Caco2; test: as above; format: cell-based; settings: Caco2, 72 h incubation
Method: as §1

[10] = test system: U87; test: as above; format: cell-based; settings: glioblastoma cell line U87, 72 h incubation
Method: as §1

[11] = test system: HeLa cells; settings: cited from earlier work
[12] = test system: Cancer cell lines (MDA-MB-231, MCF7, Caco2, or U87); test: Cancer cell line cytotoxicity, span over all cell lines studied; format: cell-based; settings: Homo sapiens; all cell lines studied except Caco-2; read-out: activity against all cell lines studied (span of values)
Method: as §1

Sequence of glycogen synthase kinase-3β (P49841 whole entry): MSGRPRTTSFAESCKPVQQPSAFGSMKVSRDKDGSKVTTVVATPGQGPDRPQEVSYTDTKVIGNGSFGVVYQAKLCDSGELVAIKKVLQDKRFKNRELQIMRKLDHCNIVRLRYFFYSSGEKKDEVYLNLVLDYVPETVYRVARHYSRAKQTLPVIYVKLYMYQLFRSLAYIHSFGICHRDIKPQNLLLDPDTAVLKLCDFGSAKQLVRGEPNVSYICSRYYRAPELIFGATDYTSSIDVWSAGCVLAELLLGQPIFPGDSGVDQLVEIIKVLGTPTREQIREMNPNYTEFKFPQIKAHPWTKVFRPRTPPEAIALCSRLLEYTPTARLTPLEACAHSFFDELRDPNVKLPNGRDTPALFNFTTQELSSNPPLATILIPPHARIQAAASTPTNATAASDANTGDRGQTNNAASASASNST
Sequence of osteopontin (OPN, encoded by SPP1) (P10451 17-314, species assumed): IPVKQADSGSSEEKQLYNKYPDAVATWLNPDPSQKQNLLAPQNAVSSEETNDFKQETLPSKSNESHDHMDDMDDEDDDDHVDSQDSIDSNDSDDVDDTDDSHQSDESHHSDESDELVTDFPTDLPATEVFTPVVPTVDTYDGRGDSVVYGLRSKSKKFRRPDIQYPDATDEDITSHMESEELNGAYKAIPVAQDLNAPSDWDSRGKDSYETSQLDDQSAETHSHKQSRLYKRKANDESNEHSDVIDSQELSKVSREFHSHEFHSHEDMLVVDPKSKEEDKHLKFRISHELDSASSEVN

O=C1NC2CCCC2(O)n2cccc21 (stereo not shown) [18b]
stability of carbinolamine under neutral conditions [1]: stable in CD3OD for several days

CN1C(=O)N[C@H]2[C@@H]3NC(=O)c4cccn4[C@]3(O)C[C@]21O (racemic) [compound 24, 7-hydroxy-13-des-bromo AglA]
stability by 1H NMR ([2]; stored in CD3OD or DMSO-d6 at ambient temperature (22° C.) for 7 days): quite stable
EC50 at 72 h ([3]; Caco2 cells, Caco2, 72 h incubation): > 250 µM
EC50 at 72 h ([3]; MCF7 cells, MCF7, 72 h incubation): > 250 µM
EC50 at 72 h ([3]; MDA-MB-231 cells, MDA-MB-231, 72 h incubation): > 250 µM
EC50 at 72 h ([3]; U87 glioblastoma cells, glioblastoma cell line U87, 72 h incubation): 171 ± 8 µM

Agelastatin A [AglA]
binding to the peptidyl transfer center of the ribosome [4]: binds to the peptidyl transfer center (PTC) of the ribosome
inhibition of expression of glycogen synthase kinase-3β [5]: inhibits the expression
inhibition of osteopontin [6]: inhibition of osteopontin

CO[C@@]12C[C@H]3OC(c4ccc(Br)[nH]4)=N[C@H]3[C@@H]1NC(=O)N2C [26a]
cytotoxicity EC50 [7]: no activity
cytotoxicity EC50 [8]: no activity
cytotoxicity EC50 [9]: no activity
cytotoxicity EC50 [10]: no activity

O=C1NC2CCCC2(O)n2c(Br)ccc21 (stereo not shown) [18a]
stability of carbinolamine under neutral conditions [1]: opened rapidly in CD3OD

13-des-bromo AglA
drop in potency compared to AglA [11]: ~500 X

O=C1NC2CCCC2(O)n2cc(Br)cc21 (stereo not shown) [18c]
stability of carbinolamine under neutral conditions [1]: stable under neutral conditions

CN1C(=O)N[C@H]2[C@@H]3NC(=O)c4ccc([N+](=O)[O-])n4[C@@H]3C[C@]21O [compound 37, 13-nitro AglA]
EC50 [12]: 1.16 to 35.4 µM

7-hydroxy AglA [7-OH AglA]
stability (ring-closed carbinolamine vs ring opened ketopyrrole tautomer) [2]: instability
stability (ring-closed carbinolamine vs ring opened ketopyrrole tautomer) ([2]; listed as 7-hydroxy AglA): unstable
